Experimental data as given in patent publication US20050214384A1, “Chromium compositions and methods for using the same for inhibiting drug-induced insulin resistance” (priority 2002, published 2005).
Read-outs that look alike come from different tables or passages of the source.

Tests used:
rats [1] = settings: cited from earlier work
rats [2] = settings: oral CrCl3; cited from earlier work
[3] = tested on: subjects taking statin drugs; assay: Clinical trial of chromium picolinate on statin-induced insulin resistance (Example 1); format: in vivo, human; settings: 400 μg chromium, one capsule a day orally, approximately six months, versus statin drug without chromium supplementation
Protocol: The effect of a chromium complex in inhibiting drug-induced insulin resistance is evaluated. Specifically, the effects of chromium picolinate on insulin sensitivity and vascular reactivity in subjects taking statin drugs are evaluated.
A clinical trial is initiated which includes approximately 80 male and female subjects between the ages of 35 and 65. The subject population is characterized as individuals suffering from moderate hypercholesterolemia and moderate high blood pressure. All subjects have been diagnosed with hypercholesterolemia. LDLC based on 75th percentile (>140-165 mg/dL) and HDL-C: <30 mg/dL. […]
Study visits are scheduled at the start of the study to record baseline information on the subjects and every two weeks thereafter. The following physiological conditions are measured prior to administration of the supplement as a baseline and at regular intervals during the course of the study: Glycated hemoglobin, fasting insulin, fasting plasma glucose levels, total cholesterol, triglycerides, LDL, HDL, urinalysis (routine), CBC, and serum chemistry, as well as blood pressure and body weight. In addition, insulin sensitivity is measured according to the euglycemic-hyperinsulinemic glucose clamp technique specified by R. A. DeFronzo et al. Glucose Clamp Technique: A Method for Quantifying Insulin Secretion and Resistance, 237 Am. […]

In the case of [Cl][Cr]([Cl])[Cl] [chromium chloride], the toxic effects (rats [1]; levels several thousand times the upper limit of the ESADDI for chromium for humans (based on body weight)) is listed as “without toxic effects”.

In the case of CC(=O)Oc1ccccc1C(=O)O [aspirin], the “effect on chromium absorption” value (rats [2]) is listed as “facilitated”.

For chromium picolinate, the “incidence of drug-induced insulin resistance” value [3] is listed as “lower incidence of drug-induced insulin resistance” and the toxic effects (rats [1]; rat, in vivo) is listed as “without toxic effects”.
